System: MV-4-11 cells
Assay: Gene expression microarray analysis (Affymetrix PrimeView) and GSEA
Format: cell-based, human
Design: RFU PODN (11730768_x_at) / Fold change /veh PODN (11730768_x_at) / RFU LINC00158 (11744669_a_at) / Fold change /veh LINC00158 (11744669_a_at) / RFU DUSP10 (11751237_a_at) / Fold change /veh DUSP10 (11751237_a_at) / RFU ID3 (11757404_x_at) / Fold change /veh ID3 (11757404_x_at) / RFU PLEKHG5 (11737974_s_at) / Fold change /veh PLEKHG5 (11737974_s_at) / RFU LRRC4B (11730491_at) / Fold change /veh LRRC4B (11730491_at) / RFU GIMAP4 (11747438_a_at) / Fold change /veh GIMAP4 (11747438_a_at) / RFU KRT8 (11758183_x_at) / Fold change /veh KRT8 (11758183_x_at) / RFU CNN1 (11734310_a_at) / Fold change /veh CNN1 (11734310_a_at) / RFU VPS37D (11726825_at) / Fold change /veh VPS37D (11726825_at) / RFU C10orf10 (11716522_x_at) / Fold change /veh C10orf10 (11716522_x_at) / RFU KIR2DL2 /// KIR2DL4 /// KIR2DL5A /// KIR2DL5B /// KIR2DS1 /// KIR2DS2 /// KIR2DS3 /// KIR2DS4 /// KIR3DL3 /// KIR3DL3 /// KIR3DS1 (11738374_at) / Fold change /veh KIR2DL2 /// KIR2DL4 /// KIR2DL5A /// KIR2DL5B /// KIR2DS1 /// KIR2DS2 /// KIR2DS3 /// KIR2DS4 /// KIR3DL3 /// KIR3DL3 /// KIR3DS1 (11738374_at) / RFU C1QL1 (11718748_at) / Fold change /veh C1QL1 (11718748_at) / RFU TMPRSS4 (11747572_a_at) / Fold change /veh TMPRSS4 (11747572_a_at) / RFU HAMP (11756126_x_at) / Fold change /veh HAMP (11756126_x_at) / RFU RNFT2 (11725882_a_at) / Fold change /veh RNFT2 (11725882_a_at) / RFU NR4A2 (11747474_a_at) / Fold change /veh NR4A2 (11747474_a_at) / RFU ABCC12 (11746883_a_at) / Fold change /veh ABCC12 (11746883_a_at) / RFU TMEM136 (11760407_x_at) / Fold change /veh TMEM136 (11760407_x_at) / RFU CLDN22 /// WWC2 (11732394_at) / Fold change /veh CLDN22 /// WWC2 (11732394_at) / RFU HLA-DPB1 (11760878_x_at) / Fold change /veh HLA-DPB1 (11760878_x_at) / RFU SPINT1 (11716480_a_at) / Fold change /veh SPINT1 (11716480_a_at) / RFU GAP43 (11754022_s_at) / Fold change /veh GAP43 (11754022_s_at) / RFU A4GNT (11735810_at) / Fold change /veh A4GNT (11735810_at) / RFU PRB3 (11715151_x_at) / Fold change /veh PRB3 (11715151_x_at) / RFU TUBB4B (11761932_at) / Fold change /veh TUBB4B (11761932_at) / RFU CAPN14 (11732068_a_at) / Fold change /veh CAPN14 (11732068_a_at) / RFU TMCC2 (11721928_a_at) / Fold change /veh TMCC2 (11721928_a_at) / RFU IRGQ (11745062_a_at) / Fold change /veh IRGQ (11745062_a_at) / RFU FAM174B (11720279_a_at) / Fold change /veh FAM174B (11720279_a_at) / RFU TMPRSS4 (11748680_a_at) / Fold change /veh TMPRSS4 (11748680_a_at) / RFU FAM212B (11763350_a_at) / Fold change /veh FAM212B (11763350_a_at) / RFU PLEKHG5 (11743358_a_at) / Fold change /veh PLEKHG5 (11743358_a_at) / RFU ZSCAN30 (11745921_a_at) / Fold change /veh ZSCAN30 (11745921_a_at) / RFU CMKLR1 (11741424_a_at) / Fold change /veh CMKLR1 (11741424_a_at) / RFU LOC101060620 /// MAPK8IP1 (11723275_at) / Fold change /veh LOC101060620 /// MAPK8IP1 (11723275_at) / RFU SPTSSB (11747773_x_at) / Fold change /veh SPTSSB (11747773_x_at) / RFU PRSS12 (11739890_at) / Fold change /veh PRSS12 (11739890_at) / RFU BIN1 (11741810_x_at) / Fold change /veh BIN1 (11741810_x_at) / RFU WNT11 (11732464_a_at) / Fold change /veh WNT11 (11732464_a_at) / RFU C10orf10 (11716521_a_at) / Fold change /veh C10orf10 (11716521_a_at) / RFU C5orf56 (11738089_at) / Fold change /veh C5orf56 (11738089_at) / RFU CYB561 (11721691_x_at) / Fold change /veh CYB561 (11721691_x_at) / RFU ANKRD19P (11752326_a_at) / Fold change /veh ANKRD19P (11752326_a_at) / RFU OR2T12 /// OR2T33 /// OR2T8 (11738714_s_at) / Fold change /veh OR2T12 /// OR2T33 /// OR2T8 (11738714_s_at) / RFU VCAN (11748164_a_at) / Fold change /veh VCAN (11748164_a_at) / RFU JSRP1 (11732532_at) / Fold change /veh JSRP1 (11732532_at) / RFU KRTAP10-11 (11738290_x_at) / Fold change /veh KRTAP10-11 (11738290_x_at) / RFU MYO3A (11730013_a_at) / Fold change /veh MYO3A (11730013_a_at) / RFU EBF3 (11725865_a_at) / Fold change /veh EBF3 (11725865_a_at) / RFU CAMK2N1 (11719241_x_at) / Fold change /veh CAMK2N1 (11719241_x_at) / RFU C5orf56 (11738088_a_at) / Fold change /veh C5orf56 (11738088_a_at) / RFU OLFML3 (11715873_a_at) / Fold change /veh OLFML3 (11715873_a_at) / RFU LOC100653217 /// NTM (11731650_a_at) / Fold change /veh LOC100653217 /// NTM (11731650_a_at) / RFU MAPK11 (11762145_a_at) / Fold change /veh MAPK11 (11762145_a_at) / RFU FIZ1 (11724087_x_at) / Fold change /veh FIZ1 (11724087_x_at) / RFU OASL (11726364_x_at) / Fold change /veh OASL (11726364_x_at) / RFU SOX15 (11748057_x_at) / Fold change /veh SOX15 (11748057_x_at) / RFU CD79A (11719716_a_at) / Fold change /veh CD79A (11719716_a_at) / RFU HIST1H1D (11736915_at) / Fold change /veh HIST1H1D (11736915_at) / RFU CASKIN2 (11723855_a_at) / Fold change /veh CASKIN2 (11723855_a_at) / RFU LOC730098 (11760151_x_at) / Fold change /veh LOC730098 (11760151_x_at) / RFU OR4N2 (11742367_at) / Fold change /veh OR4N2 (11742367_at) / RFU PRRT2 (11749266_a_at) / Fold change /veh PRRT2 (11749266_a_at) / RFU SNX32 (11753110_a_at) / Fold change /veh SNX32 (11753110_a_at) / RFU CDHR5 (11726645_a_at) / Fold change /veh CDHR5 (11726645_a_at) / RFU RCAN1 (11760418_a_at) / Fold change /veh RCAN1 (11760418_a_at) / RFU FAM167A (11723789_a_at) / Fold change /veh FAM167A (11723789_a_at) / RFU FAM26E (11764081_at) / Fold change /veh FAM26E (11764081_at) / RFU ISYNA1 (11749810_s_at) / Fold change /veh ISYNA1 (11749810_s_at) / RFU ACY1 (11761880_at) / Fold change /veh ACY1 (11761880_at) / RFU 11764098_at / Fold change /veh 11764098_at / RFU SAMD14 (11745864_x_at) / Fold change /veh SAMD14 (11745864_x_at) / RFU NPB (11741838_a_at) / Fold change /veh NPB (11741838_a_at) / RFU TMPRSS6 (11731388_a_at) / Fold change /veh TMPRSS6 (11731388_a_at) / RFU KRTAP10-2 (11738614_at) / Fold change /veh KRTAP10-2 (11738614_at) / RFU ARHGAP8 /// PRR5-ARHGAP8 (11727945_x_at) / Fold change /veh ARHGAP8 /// PRR5-ARHGAP8 (11727945_x_at) / RFU KRTAP5-7 /// NADSYN1 (11734609_at) / Fold change /veh KRTAP5-7 /// NADSYN1 (11734609_at) / RFU RASL12 (11751679_a_at) / Fold change /veh RASL12 (11751679_a_at) / RFU CDKN2B (11736163_a_at) / Fold change /veh CDKN2B (11736163_a_at) / RFU PRF1 (11729649_at) / Fold change /veh PRF1 (11729649_at) / RFU, ZNF638 /// ZNF638-IT1 / Fold change vs veh, ZNF638 /// ZNF638-IT1 / RFU, PANK3 / Fold change vs veh, PANK3 / RFU, SH3YL1 / Fold change vs veh, SH3YL1 / RFU, ZEB2 / Fold change vs veh, ZEB2 / RFU, NRIP1 / Fold change vs veh, NRIP1 / RFU, PTTG1IP / Fold change vs veh, PTTG1IP / RFU, CAPN2 / Fold change vs veh, CAPN2 / RFU, MED14 / Fold change vs veh, MED14 / RFU, SNORA58 / Fold change vs veh, SNORA58 / RFU, C1orf63 / Fold change vs veh, C1orf63 / RFU, LRRFIP1 / Fold change vs veh, LRRFIP1 / RFU, NDUFAF7 / Fold change vs veh, NDUFAF7 / RFU, SLC12A2 / Fold change vs veh, SLC12A2 / RFU, IBTK / Fold change vs veh, IBTK / RFU, ESF1 / Fold change vs veh, ESF1 / Fold change vs veh, TMEM50B / RFU, TAOK1 / Fold change vs veh, TAOK1 / RFU, ACBD3 / Fold change vs veh, ACBD3 / RFU, TMA16 / Fold change vs veh, TMA16 / RFU, RWDD3 / Fold change vs veh, RWDD3 / RFU, BCAT1 / Fold change vs veh, BCAT1 / RFU, EDEM3 / Fold change vs veh, EDEM3 / RFU, TMEM33 / Fold change vs veh, TMEM33 / RFU, WDR75 / Fold change vs veh, WDR75 / RFU, AHCTF1 / Fold change vs veh, AHCTF1 / RFU, TFRC / Fold change vs veh, TFRC / RFU, ZDHHC17 / Fold change vs veh, ZDHHC17 / RFU, NOM1 / Fold change vs veh, NOM1 / RFU, ARL8B / Fold change vs veh, ARL8B / RFU, ZBTB11 / Fold change vs veh, ZBTB11 / RFU, TAMM41 / Fold change vs veh, TAMM41 / RFU, KIAA1704 /// LOC100996395 / Fold change vs veh, KIAA1704 /// LOC100996395 / RFU, ING1 / Fold change vs veh, ING1 / RFU, TRMT61B / Fold change vs veh, TRMT61B / RFU, FUBP3 / Fold change vs veh, FUBP3 / RFU, TP53 / Fold change vs veh, TP53 / RFU, TNKS2 / Fold change vs veh, TNKS2 / RFU, ZFP14 / Fold change vs veh, ZFP14 / RFU, ACTR2 / Fold change vs veh, ACTR2 / RFU, PPP3R1 / Fold change vs veh, PPP3R1 / RFU, PIK3R1 / Fold change vs veh, PIK3R1 / RFU, HNRNPA1 / Fold change vs veh, HNRNPA1 / RFU, RNF170 / Fold change vs veh, RNF170 / RFU, ZNF28 / Fold change vs veh, ZNF28 / RFU, RNGTT / Fold change vs veh, RNGTT / RFU, OGT / Fold change vs veh, OGT / RFU, BRD1 / Fold change vs veh, BRD1 / RFU, MARS / Fold change vs veh, MARS / RFU, ZNF655 / Fold change vs veh, ZNF655 / RFU, FAHD1 / Fold change vs veh, FAHD1 / RFU, BDP1 / Fold change vs veh, BDP1 / RFU, LRRCC1 / Fold change vs veh, LRRCC1 / RFU, ARID1A / Fold change vs veh, ARID1A / RFU, ZNF146 / Fold change vs veh, ZNF146 / RFU, ZNF330 / Fold change vs veh, ZNF330 / RFU, GPN3 / Fold change vs veh, GPN3 / RFU, C9orf123 / Fold change vs veh, C9orf123 / RFU, N4BP2L2 / Fold change vs veh, N4BP2L2 / RFU, ARFIP1 / Fold change vs veh, ARFIP1 / RFU, FAM179B / Fold change vs veh, FAM179B / RFU, BCL10 / Fold change vs veh, BCL10 / RFU, UHRF1BP1L / Fold change vs veh, UHRF1BP1L / RFU, BET1 / Fold change vs veh, BET1 / RFU, CNOT2 / Fold change vs veh, CNOT2 / RFU, ZNF268 / Fold change vs veh, ZNF268 / Fold change vs veh, ZNF507 / RFU, DGCR2 / Fold change vs veh, DGCR2 / RFU, WDSUB1 / Fold change vs veh, WDSUB1 / Fold change vs veh, HSP90B1 /// MIR3652 / RFU, ADSS / Fold change vs veh, ADSS / RFU, GK / Fold change vs veh, GK / RFU, ZNF148 / Fold change vs veh, ZNF148 / RFU, TAF9 / Fold change vs veh, TAF9 / RFU, SLC1A5 / Fold change vs veh, SLC1A5 / RFU, SLMO2 / Fold change vs veh, SLMO2 / RFU, ABCC4 / Fold change vs veh, ABCC4 / RFU, LOC101060439 /// RAP1B / Fold change vs veh, LOC101060439 /// RAP1B / RFU, RFX7 / Fold change vs veh, RFX7 / RFU, GTPBP10 / Fold change vs veh, GTPBP10 / RFU, CNEP1R1 / Fold change vs veh, CNEP1R1 / RFU, BIVM-ERCC5 /// ERCC5 / Fold change vs veh, BIVM-ERCC5 /// ERCC5 / RFU, ILF3 / Fold change vs veh, ILF3 / RFU 11762660_at / Fold change /veh 11762660_at / RFU VCAN (11757783_s_at) / Fold change /veh VCAN (11757783_s_at) / RFU DDX43 (11728927_at) / Fold change /veh DDX43 (11728927_at) / RFU KRT8 (11758188_x_at) / Fold change /veh KRT8 (11758188_x_at) / RFU NKD1 (11759106_at) / Fold change /veh NKD1 (11759106_at) / RFU SRD5A1 (11742802_a_at) / Fold change /veh SRD5A1 (11742802_a_at) / RFU TPSAB1 /// TPSB2 (11721975_s_at) / Fold change /veh TPSAB1 /// TPSB2 (11721975_s_at) / RFU GSTM3 (11746129_a_at) / Fold change /veh GSTM3 (11746129_a_at) / RFU IL23R (11737362_x_at) / Fold change /veh IL23R (11737362_x_at) / RFU TMEM51 (11727254_a_at) / Fold change /veh TMEM51 (11727254_a_at) / RFU PIWIL2 (11732686_x_at) / Fold change /veh PIWIL2 (11732686_x_at) / RFU ORM1 (11744905_x_at) / Fold change /veh ORM1 (11744905_x_at) / RFU CCDC152 (11743942_at) / Fold change /veh CCDC152 (11743942_at) / RFU ECM1 (11717891_a_at) / Fold change /veh ECM1 (11717891_a_at) / RFU IL23R (11748794_a_at) / Fold change /veh IL23R (11748794_a_at) / RFU TNFAIP8L3 (11732012_x_at) / Fold change /veh TNFAIP8L3 (11732012_x_at) / RFU MBOAT4 (11741988_at) / Fold change /veh MBOAT4 (11741988_at) / RFU 11764193_at / Fold change /veh 11764193_at / RFU TMEM53 (11763286_at) / Fold change /veh TMEM53 (11763286_at) / RFU MAGEB2 (11727129_at) / Fold change /veh MAGEB2 (11727129_at) / RFU TMEM200A (11744735_a_at) / Fold change /veh TMEM200A (11744735_a_at) / RFU CCDC152 (11751479_a_at) / Fold change /veh CCDC152 (11751479_a_at) / RFU FAM211A (11726209_a_at) / Fold change /veh FAM211A (11726209_a_at) / RFU RGS16 (11746705_a_at) / Fold change /veh RGS16 (11746705_a_at) / RFU VCAN (11755009_s_at) / Fold change /veh VCAN (11755009_s_at) / RFU RHOB (11743442_s_at) / Fold change /veh RHOB (11743442_s_at) / RFU RGS16 (11720943_a_at) / Fold change /veh RGS16 (11720943_a_at) / RFU RGS16 (11720944_at) / Fold change /veh RGS16 (11720944_at) / RFU, VPS4B / Fold change vs veh, VPS4B / RFU, CREB1 / Fold change vs veh, CREB1 / RFU, DNAJC13 / Fold change vs veh, DNAJC13 / RFU, GNAQ / Fold change vs veh, GNAQ / RFU, CDK5R1 / Fold change vs veh, CDK5R1 / RFU, ZRANB3 / Fold change vs veh, ZRANB3 / RFU, CUL4A / Fold change vs veh, CUL4A / RFU, CCNY / Fold change vs veh, CCNY / RFU, UFL1 / Fold change vs veh, UFL1 / RFU, COG3 / Fold change vs veh, COG3 / RFU, DIAPH2 / Fold change vs veh, DIAPH2 / RFU, SKA2 / Fold change vs veh, SKA2 / RFU, AFF3 / Fold change vs veh, AFF3 / RFU, LMF1 / Fold change vs veh, LMF1 / RFU, IPO11 / Fold change vs veh, IPO11 / RFU, DFFB / Fold change vs veh, DFFB / RFU, FOXP1 / Fold change vs veh, FOXP1 / RFU, CARD8 / Fold change vs veh, CARD8 / RFU, STRN3 / Fold change vs veh, STRN3 / RFU, ADK / Fold change vs veh, ADK / RFU, RASSF2 / Fold change vs veh, RASSF2 / RFU, WIPF1 / Fold change vs veh, WIPF1 / RFU, LARP1B / Fold change vs veh, LARP1B / RFU, RASA1 / Fold change vs veh, RASA1 / RFU, RB1 / Fold change vs veh, RB1 / RFU, PPFIA1 / Fold change vs veh, PPFIA1 / RFU, MAT2A / Fold change vs veh, MAT2A / RFU, CCT5 / Fold change vs veh, CCT5 / RFU, WDR92 / Fold change vs veh, WDR92 / RFU, CUX1 / Fold change vs veh, CUX1 / RFU, TTC7A / Fold change vs veh, TTC7A / RFU, TMEM135 / Fold change vs veh, TMEM135 / RFU, DEPTOR / Fold change vs veh, DEPTOR / RFU, CPM / Fold change vs veh, CPM / RFU, DNAJB6 / Fold change vs veh, DNAJB6 / RFU, CACNA2D3 / Fold change vs veh, CACNA2D3 / RFU, DTX4 / Fold change vs veh, DTX4 / RFU, TFCP2 / Fold change vs veh, TFCP2 / RFU, GMCL1 /// GMCL1P1 / Fold change vs veh, GMCL1 /// GMCL1P1 / RFU, AEBP2 / Fold change vs veh, AEBP2 / RFU, SNHG1 /// SNORD22 /// SNORD25 /// SNORD26 /// SNORD27 /// SNORD28 /// SNORD29 /// SNORD31 / Fold change vs veh, SNHG1 /// SNORD22 /// SNORD25 /// SNORD26 /// SNORD27 /// SNORD28 /// SNORD29 /// SNORD31 / Fold change (Aza/veh), C12orf56 (ProbeSet 11735607_a_at) / Fold change (ACY-1035/veh), C12orf56 (ProbeSet 11735607_a_at) / Fold change (Aza/veh), FGFR1OP (ProbeSet 11751329_s_at) / Fold change (ACY-1035/veh), FGFR1OP (ProbeSet 11751329_s_at) / Fold change (Aza/veh), VPS36 (ProbeSet 11739960_a_at) / Fold change (ACY-1035/veh), VPS36 (ProbeSet 11739960_a_at) / RFU SYPL1 (11715823_x_at) / Fold change /veh SYPL1 (11715823_x_at) / RFU IGFBP7 (11715501_s_at) / Fold change /veh IGFBP7 (11715501_s_at) / RFU REEP3 (11722064_at) / Fold change /veh REEP3 (11722064_at) / RFU IGLL1 (11728026_x_at) / Fold change /veh IGLL1 (11728026_x_at): dose or concentration left out as unconfirmed
Conditions: MV-4-11 cells, 48 hours

For `Nc1ccc(-c2cccs2)cc1NC(=O)c1ccc2c(c1)cc(C1CC1)n2CCN1CCOCC1` [ACY-1035], the “RFU C5orf56 (11738088_a_at)” value was 66.78 RFU.

From paper PMC5218480 (PLoS ONE, 2017)
